The results in this text go back to US11433019B2, “Ganoderma lucidum extract-preparing method using eco-friendly extraction technique, Ganoderma lucidum extract prepared thereby, and anti-aging cosmetic composition comprising same extract” (AMOREPACIFIC CORPORATION, priority 2017, dated 2022).

The subject of assay [1] is matrix metalloprotease-1 (MMP-1). Put plainly: MMP-1 inhibitory effect: free MMP-1 in media of UV-irradiated HS68 fibroblasts (kit, Amersham RPN2610). Particulars: 5 μM, UV 30 mJ, treated twice for 48 hours, corrected with control without test substance. In kind it is cell-based. The procedure:
In order to confirm the inhibitory effect of Ganoderma lucidum extracts extracted with the aqueous cyclodextrin solution according to the present disclosure on matrix metalloprotease-1 (MMP-1) expression increased by ultraviolet rays, fibroblasts cells (HS68) were seeded at a concentration of 0.75*10^5 in each well of a 12 well plate and made to be a starvation state for 24 hours, then washed with phosphate buffered saline and irradiated with UV (30 mJ). Subsequently, as a positive control, 1, 10, and 50 ppm of Ganoderma lucidum extracts extracted with 5 μM of retinoic Acid (RA) and an aqueous cyclodextrin solution were treated twice for 48 hours, and the amount of free MMP-1 in the media was measured using a kit (Amersham, RPN2610).

For a further assay, the system named is collagenase. Put plainly: Collagenase production/expression in human fibroblasts (antibody-based absorbance at 405 nm). It is filed as cell-based. Particulars: 5 μM, 24 hours, untreated group = 100. On the procedure:
The inhibitory ability of Ganoderma lucidum extracts extracted with the aqueous cyclodextrin solution according to the present disclosure on collagenase production was measured in comparison with retinoic acid. Human fibroblasts were added at 5,000 cells/well in a 96-well microtiter plate containing Dulbecco's Modified Eagle's Media (DMEM) medium containing 2.5% fetal bovine serum and incubated in an incubator (5% CO2, 37° C.) until the growth reached 70 to 80%. Then, the Ganoderma lucidum extracts, which were extracted using the 1% β-CD aqueous cyclodextrin solution in combination with ultrasonic extraction, were treated with the cells at a concentration of 100 μg/ml for 24 hours, and then the cell culture solution was collected.
Then, the degree of collagenase production in the thus-collected cell culture solution was measured using a commercially available collagenase measuring instrument (GE Healthcare Life Sciences). […]
The absorbance of the yellowish 96-well plate was measured at 405 nm using an absorptiometer, and the expression level of collagenase was calculated by Calculation Equation 1 below. In particular, the reaction absorbance of the collected cell culture solution in the untreated group was taken as the absorbance of the control group. […]
A: Absorbance of the test substance-treated cell group
B: Absorbance of control group […]

Take `CC1=C(/C=C/C(C)=C/C=C/C(C)=C/C(=O)O)C(C)(C)CCC1` [Retinoic acid, retinoic Acid]: the “Extracellular MMP-1 (% of control)” value in assay [1] is reported as 66.2% of control. The “Degree of Collagenase Expression (%)” value in the assay on collagenase worked out at 75.0%.
